# How the values were obtained:
# [1] = target: T1, Cholesteryl ester transfer protein (Homo sapiens, UniProt P11597); experiment: Inhibition of CETP-mediated neutral lipid transfer by fluorometric analysis
# T1 sequence (P11597 whole entry): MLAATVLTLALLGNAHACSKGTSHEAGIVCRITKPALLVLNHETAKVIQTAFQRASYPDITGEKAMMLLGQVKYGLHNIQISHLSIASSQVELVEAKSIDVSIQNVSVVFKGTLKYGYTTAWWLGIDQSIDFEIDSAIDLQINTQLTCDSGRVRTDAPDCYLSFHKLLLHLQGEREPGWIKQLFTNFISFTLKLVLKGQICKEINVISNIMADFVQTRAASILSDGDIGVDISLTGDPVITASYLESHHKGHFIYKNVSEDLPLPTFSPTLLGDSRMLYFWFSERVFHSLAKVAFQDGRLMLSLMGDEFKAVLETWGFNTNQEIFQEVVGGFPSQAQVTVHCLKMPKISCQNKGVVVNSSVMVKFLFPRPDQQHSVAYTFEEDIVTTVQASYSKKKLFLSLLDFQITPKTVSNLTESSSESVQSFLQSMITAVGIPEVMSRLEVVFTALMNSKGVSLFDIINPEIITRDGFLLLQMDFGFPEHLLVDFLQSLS
# [2] = system: Mus musculus; experiment: Cardioprotective activity in transgenic B6 mouse expressing cynomolgus monkey CETP assessed as increase in HDL-cholesterol level at 10 mg/kg, po BID measured after 24 hrs of first dose; format: functional
SMILES,IC50 [1],Activity [2]
COc1cc(F)c(C(C)C)cc1-c1ccccc1CN1C(=O)O[C@H](c2cc(C(F)(F)F)cc(C(F)(F)F)c2)[C@@H]1C,31.2 nM,
COc1cc(F)c(C(C)C)cc1-c1ccc(F)cc1CN1C(=O)O[C@H](c2cc(C(F)(F)F)cc(C(F)(F)F)c2)[C@@H]1C,25 nM,8 mg/dL
COc1cc(F)c(C(C)C)cc1-c1ccc(Cl)cc1CN1C(=O)O[C@H](c2cc(C(F)(F)F)cc(C(F)(F)F)c2)[C@@H]1C,16.5 nM,12.7 mg/dL
COc1cc(F)c(C(C)C)cc1-c1ccc(C#N)cc1CN1C(=O)O[C@H](c2cc(C(F)(F)F)cc(C(F)(F)F)c2)[C@@H]1C,23.3 nM,14.8 mg/dL
COc1cc(F)c(C(C)C)cc1-c1ccc([N+](=O)[O-])cc1CN1C(=O)O[C@H](c2cc(C(F)(F)F)cc(C(F)(F)F)c2)[C@@H]1C,13.3 nM,21.5 mg/dL
COc1cc(F)c(C(C)C)cc1-c1ccc(N)cc1CN1C(=O)O[C@H](c2cc(C(F)(F)F)cc(C(F)(F)F)c2)[C@@H]1C,296 nM,
COc1cc(F)c(C(C)C)cc1-c1ccc(C)cc1CN1C(=O)O[C@H](c2cc(C(F)(F)F)cc(C(F)(F)F)c2)[C@@H]1C,16.7 nM,13.8 mg/dL
COc1cc(F)c(C(C)C)cc1-c1ccc(C(C)C)cc1CN1C(=O)O[C@H](c2cc(C(F)(F)F)cc(C(F)(F)F)c2)[C@@H]1C,54.1 nM,
COc1cc(F)c(C(C)C)cc1-c1ccc(SC)cc1CN1C(=O)O[C@H](c2cc(C(F)(F)F)cc(C(F)(F)F)c2)[C@@H]1C,16.2 nM,16.4 mg/dL
COc1cc(F)c(C(C)C)cc1-c1ccc(SC(C)C)cc1CN1C(=O)O[C@H](c2cc(C(F)(F)F)cc(C(F)(F)F)c2)[C@@H]1C,689 nM,
COc1cc(F)c(C(C)C)cc1-c1ccc(SC(F)(F)F)cc1CN1C(=O)O[C@H](c2cc(C(F)(F)F)cc(C(F)(F)F)c2)[C@@H]1C,19.6 nM,12.4 mg/dL
COc1cc(F)c(C(C)C)cc1-c1ccc(C2=CCCC2)cc1CN1C(=O)O[C@H](c2cc(C(F)(F)F)cc(C(F)(F)F)c2)[C@@H]1C,254 nM,
COc1cc(F)c(C(C)C)cc1-c1ccc(C(C)(C)F)cc1CN1C(=O)O[C@H](c2cc(C(F)(F)F)cc(C(F)(F)F)c2)[C@@H]1C,18 nM,23.2 mg/dL
COc1cc(F)c(C(C)C)cc1-c1ccc(C(C)(C)O)cc1CN1C(=O)O[C@H](c2cc(C(F)(F)F)cc(C(F)(F)F)c2)[C@@H]1C,71.8 nM,
COc1cc(F)c(C(C)C)cc1-c1ccc(S(C)(=O)=O)cc1CN1C(=O)O[C@H](c2cc(C(F)(F)F)cc(C(F)(F)F)c2)[C@@H]1C,33.5 nM,
COc1cc(F)c(C(C)C)cc1-c1ccc(C(F)(F)F)cc1CN1C(=O)O[C@H](c2cc(C(F)(F)F)cc(C(F)(F)F)c2)[C@@H]1C [ANACETRAPIB],,28 mg/dL

# The remaining molecules from weak to strong by IC50 [1], led by results:
IC50 [1],SMILES,Activity [2]
6930 nM,CCCS(=O)(=O)c1ccc(-c2cc(C(C)C)c(F)cc2OC)c(CN2C(=O)O[C@H](c3cc(C(F)(F)F)cc(C(F)(F)F)c3)[C@@H]2C)c1,
2600 nM,COc1cc(F)c(C(C)C)cc1-c1ccc(S(=O)(=O)C(C)C)cc1CN1C(=O)O[C@H](c2cc(C(F)(F)F)cc(C(F)(F)F)c2)[C@@H]1C,
1230 nM,CCCSc1ccc(-c2cc(C(C)C)c(F)cc2OC)c(CN2C(=O)O[C@H](c3cc(C(F)(F)F)cc(C(F)(F)F)c3)[C@@H]2C)c1,
27.1 nM,COc1cc(F)c(C(C)C)cc1-c1ccc(S(=O)(=O)C(F)(F)F)cc1CN1C(=O)O[C@H](c2cc(C(F)(F)F)cc(C(F)(F)F)c2)[C@@H]1C,
24.9 nM,COc1cc(F)c(C(C)C)cc1-c1ccc(C(C)(C)C)cc1CN1C(=O)O[C@H](c2cc(C(F)(F)F)cc(C(F)(F)F)c2)[C@@H]1C,21 mg/dL
24.8 nM,COc1cc(F)c(C(C)C)cc1-c1ccc(C2CC2)cc1CN1C(=O)O[C@H](c2cc(C(F)(F)F)cc(C(F)(F)F)c2)[C@@H]1C,20.6 mg/dL
23.5 nM,COc1cc(F)c(C(C)C)cc1-c1ccc(I)cc1CN1C(=O)O[C@H](c2cc(C(F)(F)F)cc(C(F)(F)F)c2)[C@@H]1C,
19.8 nM,COc1cc(F)c(C(C)C)cc1-c1ccc(Br)cc1CN1C(=O)O[C@H](c2cc(C(F)(F)F)cc(C(F)(F)F)c2)[C@@H]1C,23 mg/dL

# — ChEMBL document CHEMBL1933009, “SAR studies on the central phenyl ring of substituted biphenyl oxazolidinone-potent CETP inhibitors” (Bioorg Med Chem Lett, 2012)
